In PubChem BioAssay (NCI):
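A five-concentration, 48-hour dose response in 96-well plates underlies each endpoint, interpolated linearly between surrounding concentrations. The concentration for 50% growth inhibition is given as GI50. TGI: total growth inhibition.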

Legend:
Test in all cases: inhibition of tumour cell growth, NCI panel, 48 h
[1] = test system: OVCAR-3 ovarian
[2] = test system: NCI-H226 lung
[3] = test system: SK-MEL-5 melanoma
[4] = test system: TK-10 renal
[5] = test system: SF-539 CNS
[6] = test system: HOP-92 NSCLC
[7] = test system: NCI-H23 lung
[8] = test system: MOLT-4 leukemia
[9] = test system: SNB-75 CNS
[10] = test system: SNB-19 CNS

For C[Si](C)(C)C#CCO[Si](C)(C)C, the TGI [1] was greater than 100 µM, the TGI [2] was greater than 100 µM and the TGI [3] was greater than 100 µM. The TGI [4] was greater than 100 µM, the TGI [5] was 52.3 µM and the TGI [6] was 44.3 µM. The TGI [7] was greater than 100 µM, the TGI [8] was 58.4 µM and the TGI [9] was greater than 100 µM. It also gave a TGI [10] greater than 100 µM.

In the case of CNc1ccccc1C(=O)N/N=C/C=C/c1ccccc1, the GI50 [1] is reported as 0.563 µM, the TGI [1] is reported as greater than 100 µM and the GI50 [2] is reported as 10 µM. It also gave a TGI [2] greater than 100 µM, a GI50 [3] of 0.849 µM and a TGI [3] of 31.3 µM. For the same molecule, the GI50 [4] was 3.33 µM, the TGI [4] was greater than 100 µM and the GI50 [5] was 1.09 µM. It also gave a TGI [5] of 4.91 µM, a GI50 [6] of 4.13 µM and a TGI [6] of 57.9 µM. The GI50 [7] was 7.93 µM, the TGI [7] was greater than 100 µM and the GI50 [8] was 1.86 µM. The TGI [8] was greater than 100 µM, the GI50 [9] was 0.673 µM and the GI50 [10] was 7.01 µM. The TGI [10] was greater than 100 µM.

O=P(c1ccccc1)(c1ccccc1)C1CC=C(c2ccccc2)C2(CCCC2)C1 (centres undefined) gave a TGI [1] greater than 100 µM, a TGI [2] greater than 100 µM and a TGI [3] greater than 100 µM. For the same molecule, the TGI [4] was greater than 100 µM, the TGI [5] was greater than 100 µM and the TGI [6] was 67.5 µM. For the same molecule, the TGI [7] was greater than 100 µM, the TGI [8] was 53.1 µM and the TGI [9] was greater than 100 µM. For the same molecule, the TGI [10] was greater than 100 µM.

In the case of Nc1c(C(=O)Nc2ccccc2)sc2nc3c(cc12)CCCCCC3, the GI50 [1] is reported as 0.319 µM, the TGI [1] is reported as 1.07 µM and the GI50 [2] is reported as 0.652 µM. The TGI [2] was 12.7 µM, the GI50 [3] was 0.393 µM and the TGI [3] was 9.07 µM. The GI50 [4] was 0.883 µM, the TGI [4] was 5.2 µM and the GI50 [5] was 0.231 µM. It also gave a TGI [5] of 0.741 µM, a GI50 [6] of 0.523 µM and a TGI [6] of 5.1 µM. It also gave a GI50 [7] of 0.65 µM, a TGI [7] of 16.4 µM and a GI50 [8] of 0.422 µM. The TGI [8] was greater than 50.9 µM, the GI50 [9] was 0.241 µM and the TGI [9] was 0.898 µM. For the same molecule, the GI50 [10] was 0.476 µM and the TGI [10] was 24.9 µM.

For CCC1=C(C)/C(=C/c2[nH]c(C)c(C(=O)CCCCC(=O)OC)c2C)N=C1c1ccc[nH]1, the GI50 [1] was 3.64 µM, the TGI [1] was 18.5 µM and the GI50 [2] was 17.6 µM. The TGI [2] was 51.3 µM, the GI50 [3] was 7.8 µM and the TGI [3] was 20.8 µM. For the same molecule, the GI50 [4] was 24.5 µM, the TGI [4] was 71.1 µM and the GI50 [5] was 13.2 µM. The TGI [5] was 27.1 µM, the GI50 [6] was 3.95 µM and the TGI [6] was 15.4 µM. It also gave a GI50 [7] of 17.3 µM, a TGI [7] of 55.5 µM and a GI50 [8] of 0.995 µM. For the same molecule, the TGI [8] was 6.92 µM, the GI50 [9] was 12.2 µM and the TGI [9] was 27 µM. The GI50 [10] was 15.1 µM and the TGI [10] was 38.4 µM.

CC(=O)Nc1ccc(/C=C(\NC(=O)c2ccccc2)c2nc3ccc4c(c3[nH]2)C(=O)c2ccccc2C4=O)cc1 was tested, and the TGI [1] was greater than 100 µM, the TGI [2] was greater than 100 µM and the TGI [3] was greater than 100 µM. The TGI [4] was greater than 100 µM, the TGI [5] was greater than 100 µM and the TGI [6] was greater than 100 µM. It also gave a TGI [7] greater than 100 µM, a TGI [8] of 49.3 µM and a TGI [9] of 61.5 µM. It also gave a TGI [10] greater than 100 µM.

In the case of CCN1C(=O)C/C(=C\C(C)=O)Nc2ccccc21, the TGI [1] is reported as greater than 100 µM, the TGI [2] is reported as greater than 100 µM and the TGI [3] is reported as greater than 31.6 µM. It also gave a TGI [4] greater than 100 µM, a TGI [5] greater than 100 µM and a TGI [6] greater than 100 µM. It also gave a TGI [7] greater than 100 µM, a TGI [8] greater than 100 µM and a TGI [9] greater than 67.1 µM. For the same molecule, the TGI [10] was greater than 100 µM.

Work on C=C1C(=O)O[C@H]2[C@H]1CC/C(COC(=O)C(=O)c1c[nH]c3ccccc13)=C\CC[C@@]1(C)O[C@@H]21 yielded a GI50 [1] of 1.86 µM, a TGI [1] of 4.63 µM and a GI50 [2] of 1.98 µM. It also gave a TGI [2] of 3.89 µM, a GI50 [3] of 2.06 µM and a TGI [3] of 4.13 µM. The GI50 [4] was 1.38 µM, the TGI [4] was 2.81 µM and the GI50 [5] was 1.75 µM. The TGI [5] was 3.76 µM, the GI50 [6] was 2.04 µM and the TGI [6] was 4.49 µM. For the same molecule, the GI50 [7] was 3.92 µM, the TGI [7] was 16 µM and the GI50 [8] was 2.2 µM. For the same molecule, the TGI [8] was 7.3 µM, the GI50 [9] was 2.29 µM and the TGI [9] was 11.1 µM. The GI50 [10] was 10.6 µM and the TGI [10] was 26 µM.
